Measured values from paper PMC12073438, “Stereoselectivity of In Vivo Processes and Bioactivity of Farrerol Enantiomers” (Molecules, 2025).
Read-outs that look alike come from different tables or passages of the source.

Experiments:
CYP2E1 = CYP2E1 (Homo sapiens, UniProt P05181); experiment: CYP inhibition in liver microsomes (chlorzoxazone); type: in vitro ADME; conditions: CYP 2E1, marker substrate chlorzoxazone
Protocol: (§1) A liver microsome working solution (20 mg/mL) contained potassium phosphate buffer (0.1 M, pH 7.4), hepatic microsomes and marker substrate solution, which phenacetin, diclofenic acid, S-mephenytoinwer, dextromethorphan, midazolam, coumarin and chlorzoxazone used as substrates for […], CYP2C9, CYP2C19, CYP2D6, CYP3A4/5, CYP2A6 and CYP2E1, respectively. In brief, 238.5 µL of liver microsome working solution was placed in a 1 mL EP tube. […] The reaction was started by injecting NADPH (1 mM), and the resulting mixture was incubated at 37 °C for 10 min. After centrifuging at 4000 rpm for 15 min, the supernatant was transferred and analyzed using LC-MS/MS to detect the corresponding metabolites. Each incubation was conducted in triplicate (n = 3).
An API 4000 LC/tandem mass spectrometry was used to analyze the concentration of metabolites of various chemical agents using a validated mode. An Atlantis T3 column (2.1 mm × 50 mm, 5 μm) was utilized, employing mobile phases consisting of a 0.1% formic acid solution (A) and a 0.1% acetonitrile formate solution (B). […] MRM was utilized to quantify each metabolite, detecting the following transitions: m/z 152.1/110 for acetaminophen, 312.1/230.0 for 4′-Hydroxydiclofenac, 235.0/150.0 for 4′-hydroxymephentoin, 258.2/199.1 for Dextrorphan, 342.1/203.0 for 1′-hydroxymidazolam, 161.1/133.1 for hydroxycoumarin, and 184.0/120.0 for 6-hydroxyclozoxadone.

CYP2A6 = target: T1, CYP2A6 (Homo sapiens, UniProt P11509); experiment: CYP inhibition in liver microsomes (coumarin)
T1 sequence (P11509 1-494): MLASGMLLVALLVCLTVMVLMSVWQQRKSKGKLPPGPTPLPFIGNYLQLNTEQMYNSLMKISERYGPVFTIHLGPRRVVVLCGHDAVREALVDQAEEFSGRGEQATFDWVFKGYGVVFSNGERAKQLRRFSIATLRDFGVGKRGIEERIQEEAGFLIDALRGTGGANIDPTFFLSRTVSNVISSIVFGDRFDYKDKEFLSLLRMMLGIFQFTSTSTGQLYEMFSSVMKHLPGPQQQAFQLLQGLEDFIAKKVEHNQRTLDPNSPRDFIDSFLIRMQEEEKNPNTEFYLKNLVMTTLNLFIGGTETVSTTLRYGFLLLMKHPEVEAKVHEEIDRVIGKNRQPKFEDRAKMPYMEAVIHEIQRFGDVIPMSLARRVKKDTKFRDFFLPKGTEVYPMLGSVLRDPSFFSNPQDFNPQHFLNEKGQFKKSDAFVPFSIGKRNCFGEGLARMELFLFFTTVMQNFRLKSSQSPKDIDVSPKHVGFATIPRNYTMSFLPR
Protocol: as §1
(§2) An API 4000 LC/tandem mass spectrometry was used to analyze the concentration of metabolites of various chemical agents using a validated mode. An Atlantis T3 column (2.1 mm × 50 mm, 5 μm) was utilized, employing mobile phases consisting of a 0.1% formic acid solution (A) and a 0.1% acetonitrile formate solution (B). […] As for the detection of CYP 2E1 metabolite, the Flow composition was as follows: 0–0.30 min, 10% B; 0.30–1.30 min, 10–55% B; 1.30–1.50 min, 55–95% B; 1.50–2.00 min, 95% B; 2.00–2.01 min, 95–10% B; the low rate was 0.85 mL/min. ESI was conducted in positive ion mode. MRM was utilized to quantify each metabolite, detecting the following transitions: m/z 152.1/110 for acetaminophen, 312.1/230.0 for 4′-Hydroxydiclofenac, 235.0/150.0 for 4′-hydroxymephentoin, 258.2/199.1 for Dextrorphan, 342.1/203.0 for 1′-hydroxymidazolam, 161.1/133.1 for hydroxycoumarin, and 184.0/120.0 for 6-hydroxyclozoxadone.

CYP3A4/5 = experiment: CYP inhibition in liver microsomes (midazolam); conditions: CYP 3A4/5(M); marker substrate midazolam; liver microsomes
Protocol: as §1, §2

CYP2E1, sequence (P05181 whole entry): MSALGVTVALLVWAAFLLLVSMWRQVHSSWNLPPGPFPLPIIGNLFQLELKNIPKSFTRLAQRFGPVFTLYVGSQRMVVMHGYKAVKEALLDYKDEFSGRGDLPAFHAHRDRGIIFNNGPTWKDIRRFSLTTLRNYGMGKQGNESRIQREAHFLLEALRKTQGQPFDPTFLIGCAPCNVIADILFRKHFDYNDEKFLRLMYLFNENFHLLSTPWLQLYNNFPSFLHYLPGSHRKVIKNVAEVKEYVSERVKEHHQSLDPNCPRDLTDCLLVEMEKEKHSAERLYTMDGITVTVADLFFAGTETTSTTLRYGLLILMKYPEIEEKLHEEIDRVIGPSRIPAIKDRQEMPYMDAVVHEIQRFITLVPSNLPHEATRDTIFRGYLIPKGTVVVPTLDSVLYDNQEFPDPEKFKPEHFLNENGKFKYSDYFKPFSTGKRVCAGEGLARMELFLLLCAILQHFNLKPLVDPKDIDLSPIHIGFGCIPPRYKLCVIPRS

Row | SMILES | IC50 (CYP2E1) | IC50 (CYP2A6) | IC50 (CYP3A4/5) | IC50 (CYP2A6; CYP 2A6, marker substrate coumarin, liver microsomes)
1 | Cc1c(O)c(C)c2c(c1O)C(=O)CC(c1ccc(O)cc1)O2 (single isomer, unassigned; (+)) [(+)-farrerol, 2,3-dihydro-5,7-dihydroxy-2-(4-hydroxyphenyl)-6,8-dimethyl-4-benzopyrone] | > 50 µM | > 50 µM | > 5e-05 M | 
2 | Cc1c(O)c(C)c2c(c1O)C(=O)CC(c1ccc(O)cc1)O2 (single isomer, unassigned; (-)) [(−)-farrerol, 2,3-dihydro-5,7-dihydroxy-2-(4-hydroxyphenyl)-6,8-dimethyl-4-benzopyrone] | > 50 µM |  | 2.09e-05 M | > 50 µM
